From article PMC10851555, “Safinamide, an inhibitor of monoamine oxidase, modulates the magnitude, gating, and hysteresis of sodium ion current” (BMC Pharmacology & Toxicology, 2024)
Read-outs that look alike come from different tables or passages of the source.

Experiments:
Type in all cases: cell-based, rat
[1] = system: voltage-gated sodium ion (NaV) channels in pituitary GH3 cells; experiment: Whole-cell patch-clamp of INa induced by a 30-ms depolarizing pulse (−100 to −10 mV) in GH3 cells; conditions: for reversal of SAF-mediated increase in INa(T): 10 μM added during exposure to SAF (30 μM); for reversal of SAF-mediated increase in INa(T) / effect on magnitude of INa(T): n = 7; for effect on magnitude of INa(T): dopamine or serotonin alone
[2] = system: voltage-gated sodium ion (NaV) channels in pituitary GH3 cells; experiment: Whole-cell INa(T) decay during a 1-s, 20-Hz train of depolarizing pulses in GH3 cells; conditions: for effect on SAF-induced increase in decaying time constant of INa(T): 10 μM added in the presence of 10 μM SAF; for decaying time constant of INa(T) during train of depolarizing pulses: 10 μM alone, control 66 ± 5 ms, n = 7
Experimental: Shortly before experiments, GH3 was carefully suspended in normal Tyrode’s solution at room temperature (20–25 °C). A few drops of the suspension containing cell clumps were immediately added to a custom-built chamber on the stage of an inverted Diaphot-200 microscope (Nikon, Tokyo, Japan). Pipettes were pulled from Kimax-51 soft-glass capillaries (#34500-99; Kimble, Vineland, NJ) by using a Narishige PP-830 Vertical Puller (Tokyo, Japan), and their tips were fire-polished using a microforge (MF-83, Narishige). During the measurements, an electrode with a tip resistance of 2–4 MΩ, which was tightly inserted into a holder, was maneuvered using a WR-98 micromanipulator (Narishige). Patch-clamp experiments were performed in the voltage-clamp mode with either cell-attached or whole-cell configuration (rupturing of the membrane patch after GΩ formation) by using a RK-400 Patch-Clamp Amplifier (Bio-Logic, Claix, France) connected to a laptop. Shortly before GΩ formation, potential correction was performed for a liquid junction potential, which developed at the electrode’s tip because of the difference in the compositions of the internal and bath solutions.
SAF is efficacious as an add-on therapy following subthalamic nucleus deep brain stimulation in patients with Parkinson’s disease. Therefore, we investigated whether SAF could modify the inactivation of currents induced by a train of depolarizing stimuli. The test cells were maintained at −80 mV and subjected to repetitive depolarization to −10 mV (40 ms per pulse; rate of 20 Hz; duration of 1 s). Similar to the findings of relevant studies, during the control period (the absence of SAF), INa(T) inactivation was noticed to be induced by 1 s of repetitive depolarization stimuli (−80 to −10 mV) with a decaying time constant of 65 ± 4 ms (n = 7; Fig. 6A, 6B and 6C). […] In the presence of 3 and 10 μM SAF, the exponential time course of INa(T) induced by the same train of depolarizing pulses was longer at 107 ± 5 ms (n = 7, P < 0.05) and 124 ± 6 ms (n = 7, P < 0.05), respectively. Furthermore, as MGB and ranolazine have been reported to suppress the amplitude of INa effectively, we added ranolazine (Ran; 10 μM) and mirogabalin (MGB; 10 μM) separately in the presence of 10 μM SAF. […] The application of Ran (10 μM) or MGB (10 μM) alone decreased the decaying time constant of INa(T) during the same train of depolarizing pulses to 39 ± 4 ms (n = 7, P < 0.05) or 42 ± 4 ms (n = 7, P < 0.05), respectively, from a control value of 66 ± 5 ms (n = 7). Thus, in addition to increasing the magnitude of INa(T), SAF prominently affects the decaying of INa(T) subjected to a 1-s train of depolarizing pulses.
Fig. 6 Effect of SAF on INa(T) decay induced by a train of depolarizing pulses in GH3 cells. The train of pulses comprised twenty 40-ms pulses (voltage increased to −10 mV) with 10-ms intervals at −80 mV for a total duration of 1 s. (A) Current traces during the control period (a, blue) and during exposure to 10 μM SAF (b, red). The voltage-clamp protocol used is indicated atop the current traces. In panel A, the third graphs (blue and red) from the top are the expanded forms of the second graphs (brown dashed boxes). (B) The relative amplitude of INa(T) versus pulse train duration in the absence (blue open circles) and presence (red open squares) of 10 μM SAF (mean ± standard error of the mean; n = 7 for each point). The INa(T) amplitudes were normalized by dividing the current amplitudes at the end of each pulse-train stimulation by those obtained at the beginning of the pulse train stimulation. The gray continuous lines on which the data points are overlaid are reliably fitted with a single exponential.

[3] = system: single NaV channels in GH3 cells; experiment: Cell-attached single-channel NaV current recordings in GH3 cells; conditions: n = 7
Experimental: The composition of the external or bath solution [4-(2-hydroxyethyl)-1-piperazineethanesulfonic acid (HEPES)-buffered normal Tyrode’s solution] was as follows: 136.5 mM NaCl, 1.8 mM CaCl2, 5.4 mM KCl, 0.53 mM MgCl2, 5.5 mM glucose, and 5.5 mM HEPES–NaOH (pH 7.4). To measure K^+ currents (data not shown), we filled a patch pipette with an internal solution comprising 140 mM KCl, 1 mM MgCl2, 3 mM adenosine 5′-triphosphate disodium salt, 0.1 mM guanosine 5′-triphosphate disodium salt, 0.1 mM ethylene glycol tetraacetic acid, and 5 mM HEPES–KOH buffer (pH 7.2). To record the whole-cell INa, the K^+ in the internal solution was substituted with Cs^+, and the pH of the solution was adjusted to 7.2 by adding cesium hydroxide. In the single-channel experiments performed to record NaV currents, the pipette was filled with a Na^+-rich solution containing 136 mM NaCl, 0.53 mM MgCl2, 5.5 mM glucose, and 5.5 mM HEPES–NaOH (pH 7.2). The bath medium was a K^+-rich solution comprising 130 mM KCl, 10 mM NaCl, 3 mM MgCl2, 6 mM glucose, and 10 mM HEPES-KOH (pH 7.4). The solutions and culture media were generally filtered on the day of use by using sterile Acrodisc Syringe Filters containing a 0.2-μm Supor Membrane (Bio-Check; New Taipei City, Taiwan).
Single-channel NaV currents induced by depolarizing pulses ranging from −100 to −10 mV were measured and subsequently analyzed using pCLAMP 10.7. The opening events of the channels were generally evaluated through multi-Gaussian adjustments of the distribution of amplitude across channels. Functional independence between channels was determined by comparing the observed stationary probabilities with the values calculated based on the binomial law. For dwell-time analyses, only a single channel was used in the patch-clamp experiment.
To elucidate the mechanisms underlying the effects of SAF on the magnitude of INa, we investigated the actions of SAF and SAF plus MGB on single-channel NaV currents. This experiment was performed using the cell-attached configuration of the voltage-clamp test. Test cells were placed in K^+-rich solution, and the recording pipette was filled with Na^+-rich solution. SAF (10 μM) increased channel activity and decelerated current inactivation when the cells were exposed to depolarization stimuli ascending from –100 to –10 mV (rate of 0.1 Hz; Fig. 9A). Furthermore, the addition of MGB (10 μM) in the presence of 10 μM SAF reduced the probability of channel opening. […] Moreover, with the presence of 10 μM SAF, the mean open time of NaV channels was prolonged to […] (n = 7, P < 0.05) msec from a control value of 2.3 ± 0.3 msec (n = 7). […] Consistent with these findings, the mean open time of the NaV channel in the presence of 10 μM SAF (5.9 ± 1.1 ms; n = 7; P < 0.05) was longer than that in the control period (2.3 ± 0.3 ms, n = 7); the subsequent further addition of 10 μM MGB decreased the mean open time to 3.7 ± 0.7 ms (n = 7, P < 0.05) (Fig. 9B). […] MGB added during SAF exposure reversed the SAF-induced increase in NaV channel activity.

[4] = system: voltage-gated sodium ion (NaV) channels in pituitary GH3 cells; experiment: Window INa [INa(W)] induced by ascending ramp voltage (−100 to +40 mV over 200 ms) in GH3 cells; conditions: Ran 10 μM added in the presence of SAF 10 μM
Description: The sigmoidal relationship between Vramp-induced INa(W) and the upsloping Vramp (nonlinear current–voltage relationship) was investigated and fitted with the Boltzmann function as follows: [drawing 2]
where V is the membrane potential in millivolts, Erev is the reversal potential of INa, G is the INa conductance in nanosiemens, I is the current, Vh is the voltage at which half-maximal activation or inactivation of the current occurs, q is the apparent gating charge, F is Faraday’s constant, R is the universal gas constant, and T is the absolute temperature.
The free energy ∆G0 for the gating of INa(W) was determined by assuming a two-state gating model [equilibrium between closed (resting) and open states] of the NaV channel. The ∆G0 for the activation of INa(W) at 0 mV could be calculated as follows: q × F × V1/2 [45, 46]. The standard errors in ∆G0 ( [drawing 3] ) could be calculated as follows: […]
In the present study, we investigated whether the addition of SAF to GH3 cells modulates the magnitude of INa(W) induced by ascending Vramp. Test cells were maintained at −80 mV and subjected to Vramp ascending from −100 to +40 mV over 200 ms (i.e., ramp speed of 0.7 mV/ms) to induce INa(W). […] The ∆area values of INa(W) in the absence and presence of SAF and SAF plus Ran were calculated (Fig. 7B).
Fig. 7 Stimulatory effects of SAF on window INa [INa(W)] induced by an ascending ramp voltage Vramp in GH3 cells. For the experiments, the test cells were maintained at −80 mV and subjected to Vramp ranging from −100 to +40 mV over 200 ms (ramp speed of 0.7 mV/ms). (A) INa(W) trace in the absence (a, blue) and presence (b, red) of 10 μM SAF. The inset indicates the Vramp protocol, and the downward deflection indicates inward-directed current. The continuous gray lines corresponding to the untreated or SAF-treated (10 μM) cells were fitted (least-squares minimization) with the Boltzmann equation. The values of […] and q (apparent gating charge) induced by ascending Vramp over 200 ms in the absence (blue) of SAF were, respectively, −34 mV and 2.1 e; the corresponding values in the presence (red) of 10 μM SAF were −38 mV and 2.8 e, respectively. (B) Summary graph illustrating the effects of SAF (3 and 10 μM) and SAF (10 μM) plus Ran (10 μM) on the Δarea of INa(W) in GH3 cells (mean ± standard error of the mean; n = 7 for each point). The value of Δarea was measured at a voltage ranging from −80 and +40 mV, which corresponded to INa(W) induced by the ascending Vramp. […] (C) Summary graph illustrating the effects of SAF (3 and 10 μM) and SAF plus Ran (10 μM) on ΔG0 (mean ± standard error of the mean; n = 7 for each point). The estimation of ΔG0 for the induction of instantaneous INa(W) is described in the Materials and Methods section.

[5] = 10 μM MGB added in the presence of 10 μM SAF

Cc1c(F)c(F)c(COC(=O)[C@@H]2[C@H](/C=C(\Cl)C(F)(F)F)C2(C)C)c(F)c1F (racemic) [Tef, tefluthrin]
effect on rapid inward current (INa) induced by short depolarizing pulse ([1]; 10 μM): stimulated

CCC1=C[C@@H]2[C@H](C1)C[C@]2(CN)CC(=O)O [MGB, mirogabalin]
effect on SAF-induced increase in decaying time constant of INa(T) [2]: effectively attenuated the SAF-induced increase in the decaying time constant
decaying time constant of INa(T) during train of depolarizing pulses [2]: 42 ± 4 ms
mean open time of the NaV channel [3, 5]: 3.7 ± 0.7 ms
open-state probability of the NaV channel [3, 5]: 0.041 ± 0.007
amplitude of the single-channel current ([3]; SAF plus MGB, control 2.01 ± 0.35 pA): 2.00 ± 0.44 pA

COc1ccccc1OCC(O)CN1CCN(CC(=O)Nc2c(C)cccc2C)CC1 (stereo not drawn) [Ran, ranolazine]
effect on SAF-induced increase in decaying time constant of INa(T) [2]: effectively attenuated the SAF-induced increase in the decaying time constant
decaying time constant of INa(T) during train of depolarizing pulses [2]: 39 ± 4 ms
effect on SAF-mediated increase in ∆G0 of INa(W) [4]: effectively attenuated the SAF-mediated increase in ∆G0
effect on SAF-mediated increase in ∆area of INa(W) [4]: reversed the SAF-mediated increase

NC1=N[C@H](O)[C@H]2[C@H]3O[C@]4(O)O[C@@H]([C@@H](O)[C@@]2(N1)[C@@H]4O)[C@]3(O)CO [TTX, tetrodotoxin]
amplitude of INa(L) [1]: 2 ± 1 pA
amplitude of INa(T) [1]: 18 ± 2 pA
effect on rapid inward current (INa) induced by short depolarizing pulse [1]: blocked

NCCc1ccc(O)c(O)c1 [dopamine]
reversal of SAF-mediated increase in INa(T) [1]: neither dopamine nor serotonin reversed the SAF-mediated increase in INa(T)
effect on magnitude of INa(T) [1]: neither dopamine nor serotonin altered the magnitude of INa(T)

C/C=C/C1C(C(=O)OCc2c(F)c(F)c(COC)c(F)c2F)C1(C)C (stereo not drawn) [metofluthrin]
effect on rapid inward current (INa) induced by short depolarizing pulse ([1]; 10 μM): stimulated

NCCc1c[nH]c2ccc(O)cc12 [serotonin]
reversal of SAF-mediated increase in INa(T) [1]: neither dopamine nor serotonin reversed the SAF-mediated increase in INa(T)
effect on magnitude of INa(T) [1]: neither dopamine nor serotonin altered the magnitude of INa(T)
